PubChem BioAssay (NCI)
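Cultured in 96-well plates, cells were exposed to test compound for 48 hours across five concentrations. TGI marks complete inhibition of growth.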

Experiments:
Test in all cases: DTP human tumour cell line panel, 48 h
[1] = test system: SR leukemia
[2] = test system: OVCAR-8 ovarian
[3] = test system: SK-MEL-2 melanoma
[4] = test system: A498 renal
[5] = test system: UACC-257 melanoma
[6] = test system: HOP-92 NSCLC
[7] = test system: IGROV1 ovarian
[8] = test system: SNB-78 CNS
[9] = test system: KM12 colon
[10] = test system: EKVX NSCLC
[11] = test system: DMS 114 small cell lung
[12] = test system: HL-60(TB) leukemia
[13] = test system: MOLT-4 leukemia
[14] = test system: SNB-19 CNS
[15] = test system: CCRF-CEM leukemia
[16] = test system: K-562 leukemia
[17] = test system: OVCAR-4 ovarian
[18] = test system: HOP-62 NSCLC
[19] = test system: RPMI-8226 leukemia
[20] = test system: LXFL 529 NSCLC
[21] = test system: DLD-1 colon
[22] = test system: MALME-3M melanoma
[23] = test system: NCI-H23 lung
[24] = test system: XF 498 CNS
[25] = test system: HCT-116 colon
[26] = test system: SF-295 CNS
[27] = test system: TK-10 renal
[28] = test system: LOX IMVI melanoma
[29] = test system: SK-MEL-28 melanoma
[30] = test system: SF-539 CNS
[31] = test system: SK-MEL-5 melanoma
[32] = test system: KM20L2 colon
[33] = test system: SNB-75 CNS
[34] = test system: UACC-62 melanoma
[35] = test system: SW-620 colon
[36] = test system: A549 NSCLC
[37] = test system: NCI-H460 lung
[38] = test system: RXF 393 renal
[39] = test system: UO-31 renal
[40] = test system: SF-268 CNS
[41] = test system: M19-MEL melanoma
[42] = test system: 786-0 renal
[43] = test system: OVCAR-5 ovarian
[44] = test system: CAKI-1 renal
[45] = test system: M14 melanoma
[46] = test system: HOP-18 NSCLC
[47] = test system: DMS 273 small cell lung
[48] = test system: NCI-H226 lung
[49] = test system: ACHN renal
[50] = test system: HT29 colon
[51] = test system: HCC-2998 colon
[52] = test system: SN12C renal
[53] = test system: HCT-15 colon
[54] = test system: OVCAR-3 ovarian
[55] = test system: NCI-H522 lung
[56] = test system: SK-OV-3 ovarian
[57] = test system: U251 CNS

CC/C(C)=C1\CCC(CN2CCOCC2)C1=O (stereo not drawn)
TGI [1]: 49.8 µM | TGI [2]: 50.6 µM | TGI [3]: 32 µM | TGI [4]: 39.1 µM | TGI [5]: 31.5 µM | TGI [6]: 32.4 µM | TGI [7]: 38.1 µM | TGI [8]: 50.5 µM | TGI [9]: > 100 µM | TGI [10]: 34 µM | TGI [11]: 18.6 µM | TGI [12]: 44 µM | TGI [13]: > 100 µM | TGI [14]: > 100 µM | TGI [15]: 32 µM | TGI [16]: > 100 µM | TGI [17]: 31.7 µM | TGI [18]: 40.2 µM | TGI [19]: 15.9 µM | TGI [20]: 23.7 µM | TGI [21]: 27 µM | TGI [22]: 33 µM | TGI [23]: 30.6 µM | TGI [24]: 33.4 µM | TGI [25]: 26.8 µM | TGI [26]: > 100 µM | TGI [27]: 28 µM | TGI [28]: 30.5 µM | TGI [29]: 32 µM | TGI [30]: 35 µM | TGI [31]: 78.4 µM | TGI [32]: 36.7 µM | TGI [33]: 40.6 µM | TGI [34]: 32.7 µM | TGI [35]: 34.5 µM | TGI [36]: 41.6 µM | TGI [37]: 32.4 µM | TGI [38]: 22 µM | TGI [39]: 36.6 µM | TGI [40]: 26 µM | TGI [41]: 30 µM | TGI [42]: 22.9 µM | TGI [43]: 31.3 µM | TGI [44]: 5.99 µM | TGI [45]: 31.4 µM | TGI [46]: 34.1 µM | TGI [47]: 32.4 µM | TGI [48]: > 100 µM | TGI [49]: 19.8 µM | TGI [50]: 39.9 µM | TGI [51]: 39.4 µM | TGI [52]: 21.7 µM | TGI [53]: 26.5 µM | TGI [54]: 29.5 µM

O=C(/C=C/c1ccc([N+](=O)[O-])o1)N1CCN(Cc2ccccc2)CC1
TGI [1]: 38.7 µM | TGI [2]: 28.4 µM | TGI [4]: 29.2 µM | TGI [5]: 20.8 µM | TGI [6]: 27.8 µM | TGI [7]: 32.1 µM | TGI [8]: 54.5 µM | TGI [55]: 8.16 µM | TGI [9]: 27.1 µM | TGI [10]: 38.2 µM | TGI [11]: 27.4 µM | TGI [12]: 18.4 µM | TGI [13]: 38.7 µM | TGI [14]: 30.5 µM | TGI [15]: 27.4 µM | TGI [16]: 26.2 µM | TGI [17]: 29.7 µM | TGI [18]: 34.6 µM | TGI [19]: 32.3 µM | TGI [20]: 20.2 µM | TGI [21]: 19.7 µM | TGI [56]: > 100 µM | TGI [23]: 18.7 µM | TGI [24]: 30.4 µM | TGI [25]: 22.7 µM | TGI [26]: 29.2 µM | TGI [27]: 37.9 µM | TGI [28]: 26.6 µM | TGI [57]: 28.1 µM | TGI [29]: 16.9 µM | TGI [30]: 19.4 µM | TGI [31]: 22.4 µM | TGI [32]: 24.3 µM | TGI [33]: 30.4 µM | TGI [34]: 20.6 µM | TGI [35]: 21.6 µM | TGI [36]: 35.2 µM | TGI [37]: 29.8 µM | TGI [38]: 24.5 µM | TGI [39]: 31.3 µM | TGI [40]: 29.5 µM | TGI [41]: 21.8 µM | TGI [42]: 26.1 µM | TGI [43]: 31.1 µM | TGI [44]: 21.7 µM | TGI [45]: 16.7 µM | TGI [46]: 37.1 µM | TGI [47]: 24 µM | TGI [49]: 28.3 µM | TGI [50]: 31.5 µM | TGI [51]: 29.3 µM | TGI [52]: 21.3 µM | TGI [53]: 15.9 µM | TGI [54]: 31.7 µM
